Source: publication PMC5735085, “A 1-phytase type III effector interferes with plant hormone signaling” (Nature Communications, 2017)

Molecular target: T1, HopAO1 (Pseudomonas syringae group genomosp. 3, UniProt Q79LY0)
T1 construct: gene hopD2; full-length, N-terminal 6xHis (pMCSG57-hopAO1, DNASU), E. coli BL21-CodonPlus(DE3)-RIL
Assay: in vitro phytate degradation
Assay type: biochemical

T1 sequence (Q79LY0 whole entry): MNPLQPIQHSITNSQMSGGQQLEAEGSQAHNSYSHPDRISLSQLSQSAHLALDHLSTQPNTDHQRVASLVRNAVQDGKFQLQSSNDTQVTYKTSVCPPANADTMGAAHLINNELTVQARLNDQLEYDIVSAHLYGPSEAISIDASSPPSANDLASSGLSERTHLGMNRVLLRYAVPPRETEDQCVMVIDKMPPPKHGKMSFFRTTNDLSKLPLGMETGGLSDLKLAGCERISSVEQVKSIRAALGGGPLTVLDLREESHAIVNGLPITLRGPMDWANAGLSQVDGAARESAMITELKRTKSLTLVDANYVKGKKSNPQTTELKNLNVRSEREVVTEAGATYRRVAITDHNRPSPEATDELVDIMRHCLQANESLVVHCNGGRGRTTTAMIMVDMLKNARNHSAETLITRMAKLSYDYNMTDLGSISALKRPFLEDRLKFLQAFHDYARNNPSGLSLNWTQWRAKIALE

O=P(O)(O)O[C@H]1[C@H](OP(=O)(O)O)[C@@H](OP(=O)(O)O)[C@H](OP(=O)(O)O)[C@@H](OP(=O)(O)O)[C@H]1OP(=O)(O)O [InsP6]
in vitro phytate degradation: HopAO1 degraded phytate in vitro but, in contrast to XopH, to lower phosphorylated
